From the supplement of paper PMC10307832

Experiments:
Assay in all cases: relative viability (nuclei count vs DMSO), 5 days (fraction); higher = more cells survive
NCI-H1915 = tested on: NCI-H1915
Outline: (§1)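 One day after seeding in 1536-well plates, lung cancer cell lines were dosed by pin tool. Dosing was either single-drug or a fixed anchor-drug dose plus five library-drug doses (not always all listed) in √10 steps. After 5 days, nuclei were stained in one fix-and-stain step and counted on 4× images, and relative viability is the nuclei count of treated wells over that of vehicle wells, given as the median of duplicate plates.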

201T = tested on: 201T
Outline: as §1

NCI-H460 = tested on: NCI-H460
Outline: as §1

NCI-H727 = tested on: NCI-H727
Outline: as §1

NCI-H520 = tested on: NCI-H520
Outline: as §1

NCI-H2087 = tested on: NCI-H2087
Outline: as §1

A-427 = tested on: A-427
Outline: as §1

CAL-12T = tested on: CAL-12T
Outline: as §1

NCI-H650 = tested on: NCI-H650
Outline: as §1

NCI-H1651 = tested on: NCI-H1651
Outline: as §1

NCI-H2023 = tested on: NCI-H2023
Outline: as §1

ABC-1 = tested on: ABC-1
Outline: as §1

Clc1ccc(Nc2nnc(Cc3ccncc3)c3ccccc23)cc1 [Vatalanib] + Cc1cc(Nc2cc(N3CCN(C)CC3)nc(Sc3ccc(NC(=O)C4CC4)cc3)n2)n[nH]1 [Tozasertib] (partner 0.1 µM)
relative viability (NCI-H1915; first compound 0.04 µM): 0.457
relative viability (NCI-H1915; first compound 0.1265 µM): 0.413
relative viability (NCI-H1915; first compound 0.4 µM): 0.468
relative viability (NCI-H1915; first compound 1.265 µM): 0.385
relative viability (NCI-H1915; first compound 4 µM): 0.442
relative viability (201T; first compound 0.04 µM): 0.932
relative viability (201T; first compound 0.1265 µM): 0.943
relative viability (201T; first compound 0.4 µM): 0.985
relative viability (201T; first compound 1.265 µM): 0.896
relative viability (201T; first compound 4 µM): 0.916
relative viability (NCI-H460; first compound 0.04 µM): 0.656
relative viability (NCI-H460; first compound 0.1265 µM): 0.299
relative viability (NCI-H460; first compound 1.265 µM): 0.296
relative viability (NCI-H460; first compound 4 µM): 0.397
relative viability (NCI-H727; first compound 0.04 µM): 0.6
relative viability (NCI-H727; first compound 0.1265 µM): 0.658
relative viability (NCI-H727; first compound 0.4 µM): 0.472
relative viability (NCI-H727; first compound 1.265 µM): 0.624
relative viability (NCI-H727; first compound 4 µM): 0.533
relative viability (NCI-H520; first compound 0.04 µM): 0.443
relative viability (NCI-H520; first compound 0.1265 µM): 0.385
relative viability (NCI-H520; first compound 0.4 µM): 0.467
relative viability (NCI-H520; first compound 1.265 µM): 0.443
relative viability (NCI-H520; first compound 4 µM): 0.422
relative viability (NCI-H2087; first compound 0.04 µM): 0.254
relative viability (NCI-H2087; first compound 0.1265 µM): 0.261
relative viability (NCI-H2087; first compound 0.4 µM): 0.295
relative viability (NCI-H2087; first compound 1.265 µM): 0.228
relative viability (NCI-H2087; first compound 4 µM): 0.253
relative viability (A-427; first compound 0.04 µM): 0.224
relative viability (A-427; first compound 0.1265 µM): 0.21
relative viability (A-427; first compound 0.4 µM): 0.232
relative viability (A-427; first compound 1.265 µM): 0.206
relative viability (A-427; first compound 4 µM): 0.2
relative viability (CAL-12T; first compound 0.04 µM): 0.307
relative viability (CAL-12T; first compound 0.1265 µM): 0.297
relative viability (CAL-12T; first compound 0.4 µM): 0.304
relative viability (CAL-12T; first compound 1.265 µM): 0.266
relative viability (CAL-12T; first compound 4 µM): 0.277
relative viability (NCI-H650; first compound 0.04 µM): 0.81
relative viability (NCI-H650; first compound 0.1265 µM): 0.655
relative viability (NCI-H650; first compound 1.265 µM): 0.718
relative viability (NCI-H650; first compound 4 µM): 0.631
relative viability (NCI-H1651; first compound 0.04 µM): 0.845
relative viability (NCI-H1651; first compound 0.1265 µM): 0.668
relative viability (NCI-H1651; first compound 0.4 µM): 0.701
relative viability (NCI-H1651; first compound 1.265 µM): 0.667
relative viability (NCI-H1651; first compound 4 µM): 0.629
relative viability (NCI-H2023; first compound 0.04 µM): 0.374
relative viability (NCI-H2023; first compound 0.1265 µM): 0.377
relative viability (NCI-H2023; first compound 0.4 µM): 0.424
relative viability (NCI-H2023; first compound 1.265 µM): 0.287
relative viability (NCI-H2023; first compound 4 µM): 0.241
relative viability (ABC-1; first compound 0.04 µM): 0.184
relative viability (ABC-1; first compound 0.1265 µM): 0.166
